Measured values published in US9364459B2, “3-(indolyl)- or 3-(azaindolyl)- 4-arylmaleimide derivatives for use in the treatment of colon and gastric adenocarcinoma” (Johannes Gutenberg-Universität Mainz, priority 2009, dated 2016).

Assays:
HT-29 = assay: Nicoletti apoptosis assay in HT-29 cells; type: cell-based, human; settings: for Sub-G1 Fraction: HT-29; for Activity in combination with irinotecan relative to compound A, in words: HT-29 cells
Description: (§1) Nicoletti Apoptosis Assay by Cell Cycle Analysis
(§2) Cancer cells were transferred to 12-well flat-bottomed plates. […] Subsequently, cells were incubated in 1 ml medium containing various concentrations of test compounds at 37° C. with 5% CO2. After incubation the cells were washed with PBS, trypsinized, pelleted and mixed with PI buffer (containing 0.1% sodium citrate, 0.1% triton X-100, […] propidium iodide (PI)) and incubated for 1 hour at 4° C. Cell cycle sub-G1 fraction analysis was performed as described previously (Nicoletti, I. et al. (1991) J. Immunol. Methods 139, 271-279) using a flow cytometer (BD FACS Calibur™, BD Biosciences, Heidelberg, Germany). Each experiment was done in triplicate.

FLT-3 = FLT-3 (Homo sapiens (Human), UniProt P36888); assay: FLT-3 kinase inhibition assay (Millipore IC50Profiler); type: biochemical
Chain of FLT-3 (P36888 27-993): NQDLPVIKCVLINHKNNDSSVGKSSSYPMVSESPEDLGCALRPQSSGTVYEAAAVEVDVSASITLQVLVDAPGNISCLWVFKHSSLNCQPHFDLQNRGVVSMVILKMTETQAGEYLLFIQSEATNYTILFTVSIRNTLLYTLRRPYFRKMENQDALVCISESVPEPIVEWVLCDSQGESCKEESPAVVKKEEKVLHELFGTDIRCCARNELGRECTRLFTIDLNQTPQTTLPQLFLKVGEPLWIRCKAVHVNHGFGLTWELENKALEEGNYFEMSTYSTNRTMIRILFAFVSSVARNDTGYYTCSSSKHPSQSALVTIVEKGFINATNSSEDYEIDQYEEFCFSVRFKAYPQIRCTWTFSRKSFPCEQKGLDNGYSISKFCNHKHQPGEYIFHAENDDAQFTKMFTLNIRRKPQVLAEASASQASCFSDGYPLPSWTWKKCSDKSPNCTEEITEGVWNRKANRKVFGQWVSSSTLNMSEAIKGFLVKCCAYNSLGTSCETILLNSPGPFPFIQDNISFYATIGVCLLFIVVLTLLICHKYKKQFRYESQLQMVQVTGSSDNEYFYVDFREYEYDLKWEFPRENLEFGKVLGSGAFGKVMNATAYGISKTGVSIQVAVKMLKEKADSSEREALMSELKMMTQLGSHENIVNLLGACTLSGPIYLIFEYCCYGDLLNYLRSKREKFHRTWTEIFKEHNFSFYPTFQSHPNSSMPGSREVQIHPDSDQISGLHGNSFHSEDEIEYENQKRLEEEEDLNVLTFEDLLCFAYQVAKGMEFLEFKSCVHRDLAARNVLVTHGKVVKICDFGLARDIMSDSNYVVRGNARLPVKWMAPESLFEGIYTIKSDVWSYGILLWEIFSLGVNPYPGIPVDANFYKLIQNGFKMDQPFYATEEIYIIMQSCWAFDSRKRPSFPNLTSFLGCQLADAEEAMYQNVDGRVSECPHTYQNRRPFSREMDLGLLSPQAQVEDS
Description: (§3) GSK-3β, VEGFR-2, FLT-3 Kinase Inhibition Assays
The effect of test compounds on the activity of the protein kinases GSK-3β, VEGFR-2 and FLT-3 was evaluated based on half maximal inhibitory concentration (IC50) values determined by Millipore UK Ltd; Gemini Crescent; Dundee Technology Park; Dundee DD2 1SW; UK (IC50Profiler). Detailed protocols can be found at: www.millipore.com/drugdiscovery/dd3/assayprotocols.

GSK-3β = GSK-3β (Homo sapiens (Human), UniProt P49841); assay: GSK-3β kinase inhibition assay (Millipore IC50Profiler); type: biochemical; settings: for GSK-3β IC50 values, in words: Table 2
Chain of GSK-3β (P49841 whole entry): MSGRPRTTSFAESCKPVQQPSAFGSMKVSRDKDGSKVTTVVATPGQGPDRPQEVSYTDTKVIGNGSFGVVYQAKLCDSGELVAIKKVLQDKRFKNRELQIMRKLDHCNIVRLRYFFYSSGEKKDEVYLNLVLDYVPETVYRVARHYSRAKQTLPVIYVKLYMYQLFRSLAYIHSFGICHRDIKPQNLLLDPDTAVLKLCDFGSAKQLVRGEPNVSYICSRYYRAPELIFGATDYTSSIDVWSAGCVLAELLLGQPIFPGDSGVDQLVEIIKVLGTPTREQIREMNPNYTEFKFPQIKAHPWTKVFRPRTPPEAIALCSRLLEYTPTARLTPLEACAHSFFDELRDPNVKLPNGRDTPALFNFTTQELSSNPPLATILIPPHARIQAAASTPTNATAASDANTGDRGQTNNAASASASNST
Excerpt: as §3
(§4) Detailed protocols can be found at: www.millipore.com/drugdiscovery/dd3/assayprotocols.

VEGFR-2 = VEGFR-2 (Homo sapiens (Human), UniProt P35968); assay: VEGFR-2 kinase inhibition assay (Millipore IC50Profiler); type: biochemical; settings: for VEGFR-2 IC50 values, in words: Table 2
Chain of VEGFR-2 (P35968 20-1356): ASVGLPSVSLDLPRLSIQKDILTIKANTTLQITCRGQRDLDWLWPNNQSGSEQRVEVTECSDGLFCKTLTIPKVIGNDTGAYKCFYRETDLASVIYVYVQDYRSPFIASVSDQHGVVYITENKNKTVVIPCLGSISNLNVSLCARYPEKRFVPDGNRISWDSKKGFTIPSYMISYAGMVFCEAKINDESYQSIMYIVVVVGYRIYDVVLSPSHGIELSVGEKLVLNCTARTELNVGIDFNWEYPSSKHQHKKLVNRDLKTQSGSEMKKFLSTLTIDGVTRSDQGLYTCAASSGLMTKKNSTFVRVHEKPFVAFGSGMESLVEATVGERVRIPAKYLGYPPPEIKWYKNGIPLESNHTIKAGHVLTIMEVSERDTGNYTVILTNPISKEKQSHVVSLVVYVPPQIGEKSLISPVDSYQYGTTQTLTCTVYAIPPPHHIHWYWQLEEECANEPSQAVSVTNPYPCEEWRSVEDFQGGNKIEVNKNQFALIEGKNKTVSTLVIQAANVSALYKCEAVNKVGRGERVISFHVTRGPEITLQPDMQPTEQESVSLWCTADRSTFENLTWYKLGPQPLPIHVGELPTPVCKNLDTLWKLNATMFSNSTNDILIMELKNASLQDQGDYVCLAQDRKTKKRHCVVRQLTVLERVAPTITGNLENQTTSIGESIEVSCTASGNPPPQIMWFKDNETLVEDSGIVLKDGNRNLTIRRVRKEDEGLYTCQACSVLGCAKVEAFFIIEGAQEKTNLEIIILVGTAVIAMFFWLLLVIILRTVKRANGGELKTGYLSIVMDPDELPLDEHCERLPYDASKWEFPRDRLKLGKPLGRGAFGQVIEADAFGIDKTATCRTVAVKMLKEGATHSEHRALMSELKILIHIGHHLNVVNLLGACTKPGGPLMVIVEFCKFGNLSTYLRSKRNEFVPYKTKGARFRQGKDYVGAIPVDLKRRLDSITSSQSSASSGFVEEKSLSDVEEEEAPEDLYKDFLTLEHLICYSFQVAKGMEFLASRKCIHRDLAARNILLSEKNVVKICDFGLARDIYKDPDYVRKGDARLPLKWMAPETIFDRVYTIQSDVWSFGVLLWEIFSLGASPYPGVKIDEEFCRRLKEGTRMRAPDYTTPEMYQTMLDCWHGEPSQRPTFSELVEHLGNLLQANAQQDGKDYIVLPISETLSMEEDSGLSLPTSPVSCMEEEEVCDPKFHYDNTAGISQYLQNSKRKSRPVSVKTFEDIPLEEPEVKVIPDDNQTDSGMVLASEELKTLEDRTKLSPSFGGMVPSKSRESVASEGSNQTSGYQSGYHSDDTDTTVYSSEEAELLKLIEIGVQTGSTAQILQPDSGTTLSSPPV
Excerpt: as §3, §4

[1] = system: HT-29 human colon adenocarcinoma cells; assay: MTT viability assay in HT-29 cells; settings: HT-29, 72 h, read-out: Viability of HT-29 cells as determined by MTT assay
Description: Evaluation of Effect on Viability (MTT Assay)
The antiproliferative activity of test compounds was determined by the 3-(4,5-dimethylthiazol-2-yl)-2,5-diphenyltetrazolium bromide (MTT) assay as described previously (Mosmann, T. et al. (1983) J. Immunol. Methods 65, 55-63). Cells in the exponential growth phase were transferred to 96-well flat-bottom plates. 10,000 viable cells contained in 200 μl cell suspension were plated into each well and incubated over night. Cells were then exposed to various concentrations of test compounds (100 μl/well) for 3 days at 37° C. with 5% CO2. Subsequently, 10 μl/well MTT stock solution (5 mg/ml; Biomol, Germany) was added and the cells were incubated at 37° C. with 5% CO2 for 4 hours. 100 μl solubilization solution (10% SDS in 0.01 M HCl) was added and the cells were incubated at 37° C. with 5% CO2 over night. Plates were read on an ELISA-Reader ELX 800 (BIO-TEK Software KC 4) at 562 nm absorbance. Each experiment was done in triplicate.
HCT-116, HT-29 and SW480 cells were cultured in RPMI1640 supplemented with 10% FCS. […] All cells were maintained at 37° C. and 5% CO2.

[2] = system: chick embryo microvessel formation; assay: Quantitative chick embryo in vivo assay of antiangiogenic activity; settings: Gallus gallus; 26 nM drug concentration/pellet; 24 hours incubation; read-out: Inhibition of microvessel area
Description: Evaluation of Antiangiogenic Activity in a Quantitative Chick Embryo In Vivo Assay
The inhibition of angiogenesis (new blood vessel formation) was measured as described in WO2006/061212.

HUVEC = assay: Nicoletti apoptosis assay (sub-G1 fraction) in HUVEC; type: cell-based, human; settings: 4 days, untreated 15.4 ± 1.5%
Description: as §1, §2
The same analysis was performed with HUVEC cells. 1.5×10^4 cells were plated into each well and treated with test compounds for 4 days.
Human Umbilical Vein Endothelial Cells (HUVEC) known for mitogenic specifity for VEGF were obtained from the Department of Pathology, University Hospital of Mainz, Germany. The cells were cultured in M199 supplemented with 20% FCS, 1% Pen/Strep, 0.34% GlutaMAX-I, 25 μg/ml Endothelial Cell Growth Supplement (BD Biosciences), 25 μg/ml Heparin sodium (179 USP units/mg; Sigma, Germany) and were maintained at 37° C. and 5% CO2.

[3] = Table 8, 7.9 μM test compound alone, drug-free control 3.4 ± 0.9%
[4] = Table 8, 7.9 μM test compound plus 1.18 μM irinotecan

| SMILES | IC50 (FLT-3) [nM] | GSK-3β IC50 values, in words (GSK-3β) | Sub-G1 Fraction (HT-29; [3]) [%] | Sub-G1 Fraction (HT-29; [4]) [%] | melting point [°C] | IC50 (VEGFR-2) [nM] | IC50 (GSK-3β) [nM] | also measured |
| --- | --- | --- | --- | --- | --- | --- | --- | --- |
| COc1cc2c(Nc3ccc(Br)cc3F)ncnc2cc1OCC1CCN(C)CC1 [vandetanib, reference compound] | – | – | – | – | – | – | – | Sub-G1 Fraction (HT-29; Table 9, 10 μM vandetanib plus 1.18 μM Irinotecan, 7 days): 35.2 ± 0.4%; Sub-G1 Fraction (HT-29; Table 9, single-agent treatment, 10 μM vandetanib, 7 days): 11.1 ± 1.9% |
| COc1cc(C2=C(c3cn(CCO)c4ccccc34)C(=O)NC2=O)cc(OC)c1OC [H, 3-(1-[2-Hydroxyethyl]-1H-indol-3-yl)-4-(3,4,5-trimethoxyphenyl)-maleinimide] | 554 | low nanomolar range | 8.08 ± 0.77 | 71.28 ± 3.51 | 195 to 196 | – | – | Activity in combination with irinotecan relative to compound A, in words (HT-29): even more potent than compound A |
| COc1cc(C2=C(c3cn(CCCN4CCN(C)CC4)c4ccccc34)C(=O)NC2=O)cc(OC)c1OC [N, 3-{1-[3-(4-Methylhexahydro-1-pyrazindiiumyl)propyl]-1H-indol-3-yl}-4-(3,4,5-trimethoxyphenyl)-maleinimide dichloride] | > 10000 | – | 3.01 ± 0.40 | 49.49 ± 1.82 | – | 2830 | 3240 | – |
| COc1cc(C2=C(c3cn(CCN4CCCCC4)c4ccccc34)C(=O)NC2=O)cc(OC)c1OC [L, 3-{1-[2-(piperidin-1-yl)ethyl]-1H-indol-3-yl}-4-(3,4,5-trimethoxyphenyl)-maleinimide] | 1240 | – | 4.64 ± 0.75 | 62.32 ± 1.63 | 179 to 180 | 1210 | > 1000 | Activity in combination with irinotecan relative to compound A, in words (HT-29): even more potent than compound A |
| COc1cc(C2=C(c3cn(CCN)c4ccccc34)C(=O)NC2=O)cc(OC)c1OC.Cl [F, 3-(1-[2-Ammonioethyl]-1H-indol-3-yl)-4-(3,4,5-trimethoxyphenyl)-maleinimide-chloride] | 227 | low nanomolar range | 5.69 ± 0.69 | 51.00 ± 0.56 | – | 1880 | 195 | FLT-3 inhibition, in words (FLT-3; Table 2): most significantly inhibited |
| COc1cc(C2=C(c3c[nH]c4cccnc34)C(=O)NC2=O)cc(OC)c1OC [E, 3-(4-Azaindol-3-yl)-4-(3,4,5-trimethoxyphenyl)-1H-pyrrol-2,5-dione] | 1520 | – | 4.22 ± 0.74 | 25.71 ± 1.97 | 274 to 275 | 373 | 215 | viability at 2.6 µM [1]: 114 ± 5.2%; viability at 7.9 µM [1]: 98.31 ± 0.9%; viability at 26 µM [1]: 92.6 ± 2.8%; viability at 52 µM [1]: 65.8 ± 1.5% |
| COc1cc(C2=C(c3cn(CCCN(C)C)c4ccccc34)C(=O)NC2=O)cc(OC)c1OC [K, 3-{1-[3-(Dimethylamino)propyl]-1H-indol-3-yl}-4-(3,4,5-trimethoxyphenyl) maleinimide] | 1530 | – | 3.17 ± 0.86 | 50.28 ± 1.31 | – | > 10000 | > 1000 | – |
| COc1cc(C2=C(c3c[nH]c4ccncc34)C(=O)NC2=O)cc(OC)c1OC [Compound D, 3-(5-Azaindol-3-yl)-4-(3,4,5-trimethoxyphenyl)-maleinimid] | 6270 | low nanomolar range | 21.51 ± 2.89 | 47.53 ± 0.47 | – | 23 | 50 | VEGFR-2 IC50 values, in words (VEGFR-2): low nanomolar range; inhibition at 0.026 µM [2]: 69%; Sub-G1 Fraction (HUVEC; 0.79 μM): 25.7 ± 1.2%; Sub-G1 Fraction (HUVEC; 2.6 μM): 70.2 ± 2.7%; Sub-G1 Fraction (HUVEC; 7.9 μM): 79.9 ± 3.8%; viability at 2.6 µM [1]: 62.21 ± 0.33%; viability at 7.9 µM [1]: 64.2 ± 0.76%; viability at 26 µM [1]: 39.6 ± 1.9%; viability at 52 µM [1]: 19.2 ± 0.26% |
| COc1cc(C2=C(c3cn(CCN(C)C)c4ccccc34)C(=O)NC2=O)cc(OC)c1OC [J, 3-{1-[2-(Dimethylamino)ethyl]-1H-indol-3-yl}-4-(3,4,5-trimethoxyphenyl)-maleinimide] | > 1000 | – | 2.50 ± 1.73 | 43.48 ± 1.87 | 184 to 185 | 1300 | 3580 | – |
| COc1cc(C2=C(c3cn(CCN4CCOCC4)c4ccccc34)C(=O)NC2=O)cc(OC)c1OC [M, 3-{1-(2-morpholinoethyl)-1H-indol-3-yl}-4-(3,4,5-trimethoxyphenyl)-maleinimide] | > 10000 | – | 10.01 ± 2.16 | 56.81 ± 3.96 | 238 to 239 | 9200 | 657 | – |
| COc1cc(C2=C(c3c[nH]c4cnccc34)C(=O)NC2=O)cc(OC)c1OC [Compound C, 3-(6-Azaindol-3-yl)-4-(3,4,5-trimethoxyphenyl)-maleinimid] | 1900 | low nanomolar range | 79.9 ± 4.13 | 75.69 ± 1.77 | – | 48 | < 10 | VEGFR-2 IC50 values, in words (VEGFR-2): low nanomolar range; inhibition at 0.026 µM [2]: 32%; Sub-G1 Fraction (HUVEC; 0.79 μM): 48.0 ± 2.3%; Sub-G1 Fraction (HUVEC; 2.6 μM): 66.3 ± 1.0%; viability at 2.6 µM [1]: 30.4 ± 1.52%; viability at 7.9 µM [1]: 25.8 ± 3.52%; viability at 26 µM [1]: 12.7 ± 2.6%; viability at 52 µM [1]: 4.22 ± 0.44% |
| CCN(CC)CCNC(=O)c1c(C)[nH]c(/C=C2\C(=O)Nc3ccc(F)cc32)c1C [sunitinib, reference compound] | – | – | – | – | – | – | – | Sub-G1 Fraction (HT-29; Table 9, 5 μM sunitinib plus 1.18 μM Irinotecan, 7 days): 24.5 ± 1.2%; Sub-G1 Fraction (HT-29; Table 9, single-agent treatment, 5 μM sunitinib, 7 days): 11.8 ± 1.0% |
| COc1cc(C2=C(c3cn(CCCN)c4ccccc34)C(=O)NC2=O)cc(OC)c1OC.Cl [G, 3-(1-[3-Ammoniopropyl]-1H-indol-3-yl)-4-(3,4,5-trimethoxyphenyl)-maleinimide-chloride] | > 1000 | low nanomolar range | 4.01 ± 0.66 | 56.01 ± 0.29 | – | 1500 | 129 | – |
| COc1cc(C2=C(c3cn(CCCO)c4ccccc34)C(=O)NC2=O)cc(OC)c1OC [I, 3-(1-[3-Hydroxypropyl]-1H-indol-3-yl)-4-(3,4,5-trimethoxyphenyl)-maleinimide] | 556 | low nanomolar range | 11.25 ± 0.11 | 65.71 ± 0.04 | 160 | – | – | – |
